Assay results reported in patent publication US9788541B2, “Antibacterial surfactant/microgel formulations, methods of making and methods of using the same” (The University of Toledo, priority 2012, dated 2017).

System: Pseudomonas aeruginosa PAO1
Test: Antibacterial activity test, viable cell counts by heterotrophic plate count
Type: cell-based
Details: microgel-free surfactant solutions (10 mmol/kg SDS, 14.4 mmol/kg TX-100, 3.0 mmol/kg 40:60 SDS:TX100), 0-30 min; FIG. 5 Groups 6-8
Procedure: The effect of anionic and nonionic surfactants on the microgel antibacterial properties was probed using Pseudomonas aeruginosa (wild-type P. aeruginosa PAOI strain) as model Gram-negative bacteria. The bacteria were cultured in one-tenth strength LB broth (2.5 g/L, Difco Laboratory, Detroit, Mich.) at 37° C. until the late-exponential phase. Bacterial cells were then harvested by centrifugation at 2,000 g for 15 min (using an Eppendorf 5804R centrifuge; Hamburg, Germany), washed and resuspended in phosphate buffer (0.54 g Na2HPQ4 and 0.88 g KH2PO4 per liter, pH=6.98) as bacterial suspensions (0D600=0.25±0.02).
Each antimicrobial formulation sample was then tested in triplicate at room temperature (22±2° C.). The bacterial suspension was mixed with the surfactant/microgel formulations in a 1:1000 ratio (e.g., 15 μl:15 ml). After mixing, samples were taken at 5, 15, and 30 min to quantify the effect of surfactant/microgel formulations on the number of viable cells. The viable cells were enumerated at each time point using the heterotrophic plate count method with R2A agar plates (Difco Laboratories, Detroit, Mich.).
The antibacterial activity of the surfactant/microgel formulations was tested using Pseudomonas aeruginosa PAO1 as a model Gram-negative bacteria. […]

Row | Compound | effect on bacterial viability
1 | CCCCCCCCCCCCOS(=O)(=O)[O-].[Na+] [SDS, sodium dodecyl sulfate] | no short-term effect on bacterial viability
2 | t-octylphenoxypolyethoxyethanol [TX100] | no short-term effect on bacterial viability
